Patent publication US20250230138A1, “COMPOUNDS HAVING A T-STRUCTURE FORMED BY AT LEAST FOUR CYCLES FOR USE IN THE TREATMENT OF CANCER AND OTHER INDICATIONS” (TheRas, Inc., priority 2022, published 2025)
pIC50: −log10 of the molar value. Where two headings read alike, the source gives them in different places.

Legend:
[1] = target: Cys242 in human PIK3CA (157-299) (Homo sapiens (Human), UniProt P42336); assay: Covalent modification assay using MALDI-TOF MS; format: biochemical; details: 4 h reaction time point; 1 μM protein target, 1:5 protein to compound ratio (compounds 853-1279)
Procedure, shortened: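 PIK3CA (157-299) at 3.33 μM or 1 μM in 20 mM HEPES, 150 mM NaCl, 2 mM MgCl2, pH 7.3 was incubated with compound (from 10 mM DMSO stocks) in the dark at room temperature for 15 min, 30 min, 2 h or 4 h. Linear-mode MALDI-TOF peak heights gave percent modification.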

pAKT in BT474 cells = assay: Cell-based pAKT HTRF assay in BT474 cells; details: BT474 cells, 4 hr incubation, read-out: pAKT inhibition IC50 in BT474 cells
Procedure, shortened: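 Cells are seeded on day 1 and dosed on day 2 with a 9-point curve (3 μM top, 3-fold). After 4 hr they are lysed and the lysate is mixed with d2- and Eu Cryptate-labelled antibodies. HTRF is read after 4–24 h at room temperature.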

Sequence of Cys242 in human PIK3CA (157-299) (P42336 157-299): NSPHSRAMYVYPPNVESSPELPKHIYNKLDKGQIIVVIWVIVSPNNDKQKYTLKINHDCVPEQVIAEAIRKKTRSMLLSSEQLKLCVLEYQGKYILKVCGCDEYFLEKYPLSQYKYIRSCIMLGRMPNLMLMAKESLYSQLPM

Row | Compound | pIC50 (pAKT in BT474 cells; Compounds 10-999) | pIC50 (pAKT in BT474 cells; Compounds 1000-1279) | pIC50 (pAKT in BT474 cells; Homo sapiens, BT-474, Compounds 1000-1279) | % of modification [1]
1 | C=CC(=O)N1CCn2nc(-c3nc(-c4ccc5c(c4)CCN(C)CC5)c4ccsc4c3-c3c(F)cc(F)cc3OCCOC)cc2C1C (stereo not shown) [Compound 996] | > 7.00 |  |  | A (percent of modification of PIK3CA protein ≥75%)
2 | C=CC(=O)N1CCc2nc(-c3nc(-c4ccc(=O)n(C)c4)c4ccsc4c3-c3c(F)cc(F)cc3OCCOC)sc2C1 [Compound 997] | > 7.00 |  |  | A (percent of modification of PIK3CA protein ≥75%)
3 | C=CC(=O)N1CCn2nc(-c3nc(-c4ccc(CC(=O)NC)cc4)c4ccsc4c3-c3c(F)cc(F)cc3OCCOC)cc2C1C (stereo not shown) [Compound 1017] |  | > 7.00 |  | A (percent of modification of PIK3CA protein ≥75%)
4 | C=CC(=O)N1CCn2nc(-c3nc(-c4cccc(=O)n4C)c4ccsc4c3-c3c(F)cc(F)cc3OCCOC)cc2C1C (stereo not shown) [Compound 1020] |  | > 7.00 |  | A (percent of modification of PIK3CA protein ≥75%)
5 | C=CC(=O)N1CCc2cc(-c3nc(-c4ccc5c(c4)CNC(=O)C5)c4ccsc4c3-c3c(F)cc(F)cc3OCCOC)nn2CC1 [Compound 1024] |  | > 7.00 |  | A (percent of modification of PIK3CA protein ≥75%)
6 | C=CC(=O)N1CCn2nc(-c3nc(-c4cnn(C5CN(C)C5)c4)c4ccsc4c3-c3c(F)cc(F)cc3OCCOC)cc2C1C (stereo not shown) [Compound 1029] |  | > 7.00 |  | A (percent of modification of PIK3CA protein ≥75%)
7 | C=CC(=O)N1CCn2nc(-c3nc(-c4cnnc(C5CC5)c4)c4ccsc4c3-c3c(F)cc(F)cc3OCCOC)cc2C1C (stereo not shown) [Compound 1030] |  | > 7.00 |  | A (percent of modification of PIK3CA protein ≥75%)
8 | C=CC(=O)N1CCn2nc(-c3nc(-c4ccc(=O)n(C5CN(C)C5)c4)c4ccsc4c3-c3c(F)cc(F)cc3OCCOC)cc2C1C (stereo not shown) [Compound 1031] |  | 6.00 to 7.00 |  | B (50%<percent of modification <75%)
9 | C=CC(=O)N1CCc2nc(-c3nc(-c4ccc5c(cnn5C)c4)c4ccsc4c3-c3c(F)cc(F)cc3OCCO)sc2C1 [Compound 1032] |  | < 6.00 |  | D (percent of modification <25%)
10 | C=CC(=O)N1CCn2nc(-c3nc(N4CC(CC(=O)N(C)C)C4)c4ccsc4c3-c3c(F)cc(F)cc3OCCOC)cc2C1C (stereo not shown) [Compound 1039] |  | < 6.00 |  | A (percent of modification of PIK3CA protein ≥75%)
11 | C=CC(=O)N1CCn2nc(-c3nc(-c4ccc(C5(F)CN(C)C5)cc4)c4ccsc4c3-c3c(F)cc(F)cc3OCCOC)cc2C1C (stereo not shown) [Compound 1044] |  | > 7.00 |  | A (percent of modification of PIK3CA protein ≥75%)
12 | C=CC(=O)N1CCn2nc(-c3nc(-c4cccc(OCCN(C)C)c4)c4ccsc4c3-c3c(F)cc(F)cc3OCCOC)cc2C1C (stereo not shown) [Compound 1046] |  | > 7.00 |  | A (percent of modification of PIK3CA protein ≥75%)
13 | C=CC(=O)N1CCn2nc(-c3nc(-c4ccc(N5CCN(C)CC5)nc4)c4ccsc4c3-c3c(F)cc(F)cc3OCCOC)cc2C1C (stereo not shown) [Compound 1048] |  | > 7.00 |  | A (percent of modification of PIK3CA protein ≥75%)
14 | C=CC(=O)N1CCc2nc(-c3nc(-c4ccc5nn(C)cc5c4)c4ccsc4c3-c3c(F)cc(F)cc3OCCO)sc2C1 [Compound 1053] |  | > 7.00 |  | A (percent of modification of PIK3CA protein ≥75%)
15 | C=CC(=O)N1CCn2nc(-c3nc(N4CC5(CCN(C)C5)C4)c4ccsc4c3-c3c(F)cc(F)cc3OCCOC)cc2C1C (stereo not shown) [Compound 1054] |  | 6.00 to 7.00 |  | C (25%≤percent of modification <50%)
16 | C=CC(=O)N1CCn2nc(-c3nc(N4CCC5(CN(C)C5)C4)c4ccsc4c3-c3c(F)cc(F)cc3OCCOC)cc2C1C (stereo not shown) [Compound 1055] |  | 6.00 to 7.00 |  | C (25%≤percent of modification <50%)
17 | C=CC(=O)N1CCn2nc(-c3nc(-c4cnc(OCCN(C)C)nc4)c4ccsc4c3-c3c(F)cc(F)cc3OCCOC)cc2C1C (stereo not shown) [Compound 1056] |  | > 7.00 |  | A (percent of modification of PIK3CA protein ≥75%)
18 | C=CC(=O)N1CCn2nc(-c3nc(-c4cnc5c(c4)N(C)C(=O)C5)c4ccsc4c3-c3c(F)cc(F)cc3OCCOC)cc2C1C (stereo not shown) [Compound 1058] |  | > 7.00 |  | A (percent of modification of PIK3CA protein ≥75%)
19 | C=CC(=O)N1CCn2nc(-c3nc(-c4ccc(C(=O)NCCN(C)C)cc4)c4ccsc4c3-c3c(F)cc(F)cc3OCCOC)cc2C1C (stereo not shown) [Compound 1059] |  | > 7.00 |  | A (percent of modification of PIK3CA protein ≥75%)
20 | C=CC(=O)N1CCn2nc(-c3nc(-c4cccc(CN(C)C)c4)c4ccsc4c3-c3c(F)cc(F)cc3OCCOC)cc2C1C (stereo not shown) [Compound 1061] |  | > 7.00 |  | A (percent of modification of PIK3CA protein ≥75%)
21 | C=CC(=O)N1CCn2nc(-c3nc(-c4cc5c(cc4OC)C(=O)NC5)c4ccsc4c3-c3c(F)cc(F)cc3OCCOC)cc2[C@H]1C [Compound 1063] |  | > 7.00 |  | A (percent of modification of PIK3CA protein ≥75%)
22 | C=CC(=O)N1CCn2nc(-c3nc(N4CC5CCC(C4)N5C(C)=O)c4ccsc4c3-c3c(F)cc(F)cc3OCCOC)cc2C1C (stereo not shown) [Compound 1064] |  | 6.00 to 7.00 |  | C (25%≤percent of modification <50%)

More lines, main results first:

Row | pIC50 (pAKT in BT474 cells; Compounds 10-999) | pIC50 (pAKT in BT474 cells; Compounds 1000-1279) | pIC50 (pAKT in BT474 cells; Homo sapiens, BT-474, Compounds 1000-1279) | Compound | % of modification [1]
23 |  | > 7.00 |  | C=CC(=O)N1CCc2nc(-c3nc(-c4ccc5c(c4)NC(=O)C5)c4ccsc4c3-c3c(F)cc(F)cc3OCCOC)sc2C1 [Compound 1003] | A (percent of modification of PIK3CA protein ≥75%)
24 |  | < 6.00 |  | C=CC(=O)N1CCc2cc(-c3nc(-c4cnc5c(c4)CNC(=O)C5)c4ccsc4c3-c3c(F)cc(F)cc3OCCOC)nn2CC1 [Compound 1005] | D (percent of modification <25%)
25 |  |  | > 7.00 | C=CC(=O)N1CCn2nc(-c3nc(N4CC5(CC(C(=O)NC)C5)C4)c4ccsc4c3-c3c(F)cc(F)cc3OCCOC)cc2[C@H]1C [Compound 1012, 2-((S)-6-((R)-5-acryloyl-4-methyl-4,5,6,7-tetrahydropyrazolo[1,5-a]pyrazin-2-yl)-7-(2,4-difluoro-6-(2-methoxyethoxy)phenyl)thieno[3,2-c]pyridin-4-yl)-N-methyl-2-azaspiro[3.3]heptane-6-carboxamide] | A (percent of modification of PIK3CA protein ≥75%)
26 |  | 6.00 to 7.00 |  | C=CC(=O)N1CCn2nc(-c3nc(N4CC5(CNC(=O)C5)C4)c4ccsc4c3-c3c(F)cc(F)cc3OCCOC)cc2C1C (stereo not shown) [Compound 1013] | A (percent of modification of PIK3CA protein ≥75%)
27 |  | > 7.00 |  | C=CC(=O)N1CCc2cc(-c3nc(-c4cnc5c(cnn5C)c4)c4ccsc4c3-c3c(F)cc(F)cc3OCCOC)nn2CC1 [Compound 1023] | A (percent of modification of PIK3CA protein ≥75%)
28 |  | > 7.00 |  | C=CC(=O)N1CCc2cc(-c3nc(-c4ccc5c(c4)C(=O)NC5)c4ccsc4c3-c3c(F)cc(F)cc3OCCOC)nn2CC1 [Compound 1025] | A (percent of modification of PIK3CA protein ≥75%)
29 |  | > 7.00 |  | C=CC(=O)N1CCc2cc(-c3nc(-c4ccc5cn(C)nc5c4)c4ccsc4c3-c3c(F)cc(F)cc3OCCOC)nn2CC1 [Compound 1027] | A (percent of modification of PIK3CA protein ≥75%)
30 |  | > 7.00 |  | C=CC(=O)N1CCn2nc(-c3nc(-c4cnn(C5CN(C)C5)c(=O)c4)c4ccsc4c3-c3c(F)cc(F)cc3OCCOC)cc2C1C (stereo not shown) [Compound 1035] | A (percent of modification of PIK3CA protein ≥75%)
31 |  | > 7.00 |  | C=CC(=O)N1CCn2nc(-c3nc(-c4cc(F)c(=O)n(CC(F)F)c4)c4ccsc4c3-c3c(F)cc(F)cc3OCCOC)cc2C1C (stereo not shown) [Compound 1036] | A (percent of modification of PIK3CA protein ≥75%)
32 |  | > 7.00 |  | C=CC(=O)N1CCn2nc(-c3nc(-c4cnc(N(C)C)nc4)c4ccsc4c3-c3c(F)cc(F)cc3OCCOC)cc2C1C (stereo not shown) [Compound 1037] | A (percent of modification of PIK3CA protein ≥75%)
33 |  | > 7.00 |  | C=CC(=O)N1CCn2nc(-c3nc(-c4ccn5ccnc5c4)c4ccsc4c3-c3c(F)cc(F)cc3OCCOC)cc2C1C (stereo not shown) [Compound 1040] | A (percent of modification of PIK3CA protein ≥75%)
34 |  | > 7.00 |  | C=CC(=O)N1CCn2nc(-c3nc(-c4cnnc(N5CCN(C)CC5)c4)c4ccsc4c3-c3c(F)cc(F)cc3OCCOC)cc2C1C (stereo not shown) [Compound 1045] | A (percent of modification of PIK3CA protein ≥75%)
35 |  | > 7.00 |  | C=CC(=O)N1CCc2nc(-c3nc(-c4ccc5c(c4)CNC5=O)c4ccsc4c3-c3c(F)cc(F)cc3OCCO)sc2C1 [Compound 1052] | A (percent of modification of PIK3CA protein ≥75%)
36 |  | > 7.00 |  | C=CC(=O)N1CCn2nc(-c3nc(-c4ccc(C5CN(C)C5)cc4)c4ccsc4c3-c3c(F)cc(F)cc3OCCOC)cc2C1C (stereo not shown) [Compound 1057] | A (percent of modification of PIK3CA protein ≥75%)
37 |  | > 7.00 |  | C=CC(=O)N1CCn2nc(-c3nc(-c4ccc(CCN(C)C)cc4)c4ccsc4c3-c3c(F)cc(F)cc3OCCOC)cc2C1C (stereo not shown) [Compound 1060] | A (percent of modification of PIK3CA protein ≥75%)
38 |  | > 7.00 |  | C=CC(=O)N1CCn2nc(-c3nc(-c4ccc(OCCN5CC(F)(F)C5)cc4)c4ccsc4c3-c3c(F)cc(F)cc3OCCOC)cc2C1C (stereo not shown) [Compound 1062] | A (percent of modification of PIK3CA protein ≥75%)
